{"source": "patent EP2732821A1", "about": "“Amphoteric polyamidoamines in the treatment of malaria” (Universita' Degli Studi Di Milano, priority 2012, dated 2014)", "key": {"[1]": {"tested_on": "P. yoelii XL-infected mice", "conditions": "for % parasitemia: day 4", "method": "Briefly, mice were inoculated 2 × 10^6 red blood cells from P. yoelii XL-infected mice by intraperitoneal (ip) injection. […] Tested compounds were prepared at appropriate doses in PBS. The control groups received PBS (n=3). The parasitemia was monitored daily by microscopic examination of Wright's-stained thin-blood smears. Activity was calculated by microscopic counting of blood smears from day 4."}, "[2]": {"tested_on": "P. falciparum 3D7 cultures", "test": "microbe, parasite or virus in culture", "conditions": "Plasmodium falciparum, 3D7, 48 h", "method": "Parasitemia of P. falciparum 3D7 cultures was adjusted to 1.5% with more than 90% of parasites at ring stage after sorbitol synchronization. 98 µL of this Plasmodium culture was plated in 96-well plates and incubated in the presence of phosphate-buffered saline (PBS) solutions of the free drugs or of polymer/drug conjugates (ISA 23-PQ obtained in Example3; AGMA1-PQ obtained in Example 4,; ISA 23-CQ obtained in Example 3; AGMA1-CQ obtained in Example 4) for 48 h at 37°C under a gas mixture of 92% N2, 5% CO2, and 3% O2. Parasitemia was determined by microscopic counting of blood smears, or by FACS. Table 2. Effect of free primaquine, ISA23-PQ and AGMA1-PQ on the growth of P. falciparum. The polymers were added to P. falciparum cultures at the ring stage, and incubated for 48 h before determining parasitemia."}, "P. yoelii-infected mice": {"tested_on": "P. yoelii-infected mice", "conditions": "oral, 100 mg kg^-1; cited from earlier work"}, "P. berghei-infected mice": {"tested_on": "P. berghei-infected mice", "conditions": "single intravenous dose of 1 mg kg^-1, free drug; cited from earlier work"}}, "note": "Read-outs that look alike come from different tables or passages of the source."}
{"smiles": "CCN(CC)CCCC(C)Nc1ccnc2cc(Cl)ccc12", "note": "(centres unmarked) [CQ soluble, chloroquine]", "values": [{"measurement": "% parasitemia", "setting": "[1]; chloroquine 1 mg/kg per day ip for 4 days", "result": 37.7, "unit": "%"}, {"measurement": "% parasitemia", "setting": "[1]; chloroquine 2.5 mg/kg", "result": 20.1, "unit": "%"}, {"measurement": "elimination of parasitemia and cure of the animals", "setting": "[1]; intraperitoneal 4 × 1 mg kg^-1 doses of CQ, free CQ at the same or even a larger amount", "result": "unable to eliminate parasitemia or cure the animals"}, {"measurement": "inhibition at 0.0026 µg/mL", "setting": "[2]", "result": 8.9, "unit": "%"}, {"measurement": "inhibition at 0.00515 µg/mL", "setting": "[2]", "result": 22.6, "unit": "%"}, {"measurement": "inhibition at 0.0103 µg/mL", "setting": "[2]", "result": 72.9, "unit": "%"}, {"measurement": "inhibition at 0.0206 µg/mL", "setting": "[2]", "result": 82.1, "unit": "%"}, {"measurement": "inhibition at 0.0414 µg/mL", "setting": "[2]", "result": 85.9, "unit": "%"}, {"measurement": "inhibition at 0.0824 µg/mL", "setting": "[2]", "result": 86.4, "unit": "%"}]}
{"smiles": "COc1cc(NC(C)CCCN)c2ncccc2c1", "note": "(centres unmarked) [PQ soluble, primaquine]", "values": [{"measurement": "inhibition at 0.44 µg/mL", "setting": "[2]", "result": 6.9, "unit": "%"}, {"measurement": "inhibition at 0.88 µg/mL", "setting": "[2]", "result": 40.9, "unit": "%"}, {"measurement": "inhibition at 1.76 µg/mL", "setting": "[2]", "result": 53.9, "unit": "%"}, {"measurement": "inhibition at 3.52 µg/mL", "setting": "[2]", "result": 80.3, "unit": "%"}, {"measurement": "inhibition at 7.04 µg/mL", "setting": "[2]", "result": 86.6, "unit": "%"}, {"measurement": "inhibition at 14.1 µg/mL", "setting": "[2]", "result": 88.2, "unit": "%"}]}
{"smiles": "COc1cc(/C=C/C(=O)CC(=O)/C=C/c2ccc(O)c(OC)c2)ccc1O", "note": "[curcumin]", "values": [{"measurement": "animals cured", "setting": "P. yoelii-infected mice", "result": "one third"}]}
{"smiles": "CCCCN(CCCC)CCC(O)c1cc2c(Cl)cc(Cl)cc2c2cc(C(F)(F)F)ccc12", "note": "(centres unmarked) [halofantrine]", "values": [{"measurement": "arrest of infection and survival", "setting": "P. berghei-infected mice", "result": "unable to arrest the infection or to prolong the survival of the animals"}]}
